Patent US20260130906A1, “THERAPY COMPRISING ANTI-CD19 ANTIBODY AND SUMO-ACTIVATING ENZYME INHIBITOR” (TAKEDA PHARMACEUTICAL COMPANY LIMITED, priority 2021, published 2026)

How the values were obtained:
DAUDI = test: ADCP assay (macrophages); type: cell-based, human; details: macrophages pre-treated 1 μM TAK-981 and/or 1 nM tafasitamab, E:T 2:1, 3 h, FIG. 4
Description: (§1) Monocytes were positively selected from PBMCs using CD14 MicroBeads on a MACS LS column according to the manufacturer's protocol (Miltenyi Biotec). Isoltaed cells were re-suspended in RPMI medium supplemented with 10% FCS and 1× GlutaMax. Monocytes were maturated into macrophages in T-flasks for 6 to 7 days in the presence of 50 ng/ml M-CSF.
(§2) After maturation, macrophages were stained with 2 μM CFSE and detached using 5 mM EDTA and scraping. After washing with PBS, macrophages were re-suspended in medium containing either DMSO (negative control) or 1 μM TAK-981 and allowed to re-attach in 96 well culture plates for 16-24 hours. Target cells were stained using the CellTrace Violet Cell Proliferation Kit (Invitrogen) and co-cultured with pre-treated macrophages in the presence or absence of 1 nM tafasitamab for 3 hours at an E:T ratio of 2:1. The cells were detached using 0.05% Trypsin-EDTA and transferred into multi-well flow cytometry plates. Using flow cytometry the percentage of phagocytosis was evaluated, defined as the percentage of double positive cells out of all CellTrace Violet positive cells.

[1] = test system: Daudi human xenograft tumor model; test: Study 1: Daudi human xenograft tumor model; type: in vivo, CB17 SCID mice; details: for tumor growth inhibition as a single agent (in words): Daudi human Burkitt's lymphoma mouse model; for GRI % / Tumor volume on Day 21 (±SEM): Daudi; for GRI %: Day 21, vs vehicle; for Tumor volume on Day 21 (±SEM): in mm³ (unit assumed)
Description: The differences in the tumor growth trends over time between pairs of treatment groups were assessed by fitting each animal's data to a simple exponential growth model and comparing the mean growth rates of the two groups, as described in more detail below. The difference in the growth rates was summarized by the GRI, which is the reduction in growth rate experienced by the treatment group relative to that of the reference group, expressed as a fraction of the vehicle growth rate.
A GRI greater than 100% is interpreted as tumor regression when the vehicle group is the same as the reference group. A negative value of the GRI means that the tumors in the treatment group grew faster than the tumors in the reference group. Statistical significance was determined using an unpaired t-test.
Low tumor volumes can cause problems with the data analysis, so all measurements below 25 cubic mm (including 0 values) were excluded from the analysis. After this exclusion step, the tumor volume was assumed to follow an exponential growth model. […]
Daudi is a human Burkitt's Lymphoma cell line. A Daudi human xenograft tumor model was generated by subcutaneous inoculation in the flank of 9 week old female CB17 SCID mice (Charles River Laboratories, Wilmington, MA) with 2.0×10^6 Daudi cells (cell suspension in 0.1 ml RPMI with Matrigel 1:1). When the mean tumor volume reached approximately 140 mm^3, the animals were randomized into one vehicle control group and seven treatment groups (n=7/group) as described in Table 1a. Mice were then dosed with 20% HPβCD or Compound I-263a and/or tafasitamab over a 3 week period. In the combination treatment groups, I-263a was administered first, followed immediately by the administration of tafasitamab. Tumor growth and body weight were measured twice per week during the treatment and post-treatment periods, and mice were humanely euthanized once they had reached their humane endpoint. Tumors were measured using Vernier calipers and volumes were calculated using standard equation: V=W^2×L/2, where V=volume, W=width, and L=length for the tumor.
A 0.8625 mg/mL stock solution of I-263a was formulated weekly in 20% HPβCD and administered intravenously (IV) based on an average body weight using a 0.2 mL dosing volume. Final dose of I-263a received was 7.5 mg/kg. I-263a was administered on a BIW schedule for 3 weeks (Days 0, 4, 7, 11, 14, 18). Tafasitamab was formulated prior to each injection in 0.9% saline at 0.354, 1.15, and 2.3 mg/mL. Final dose of tafasitamab received was 3, 10, or 20 mg/kg based on average body weight. Tafasitamab was administered intraperitoneally (IP) using a 0.2 mL dosing volume, on a BIW schedule for 3 weeks (Days 0, 4, 7, 11, 14, 18). The vehicle group received IV treatment with the vehicle for I-263a (20% HPβCD) on a BIW schedule for three weeks (Days 0, 4, 7, 11, 14, 18).
Statistical analysis for growth rate inhibition was performed on data up to and including Day 21.

RAMOS = test: ADCP assay (macrophages); type: cell-based; details: macrophages pre-treated 1 μM TAK-981 and/or 1 nM tafasitamab, E:T 2:1, 3 h, FIG. 4
Description: as §1, §2

lymphoma cell lines = test: ADCC assay (PBMC effector cells); type: cell-based; details: PBMCs pre-treated 0.1 μM TAK-981 17-24 h and/or 1 nM tafasitamab; E:T 10:1; 2 h; FIG. 1
Description: A panel of 9 aggressive lymphoma cell lines was analyzed (7 DLBCL and 2 Burkitt lymphoma). OCI-LY10 and TMD8 cells were cultured in Iscove's modified Dulbecco medium supplemented with either 20% human plasma or 10% FCS. All other cell lines were cultured in RPMI medium (Gibco) supplemented with 10%-20% FCS (Sigma). Cells were cultured at 37° C. in 5% CO2.
(§3) Whole Blood was collected from healthy volunteers. PBMCs were isolated via density-gradient centrifugation using Biocoll (Biochrome) or Pancoll (PAN Biotech) separating solution and SepMate tubes (STEMCELL Technologies).
PBMC effector cells were treated with 0.1 μM TAK-981 or DMSO as negative control for 17-24 hours. Target cells were stained with 1 μM carboxyfluorescein succinimidyl ester (CFSE). Subsequently, target cells were incubated with pre-treated PBMCs at an effector to target (E:T) ratio of 10:1 in the presence or absence of 1 nM tafasitamab for 2 hours at 37° C. and 5% CO2. Dead cells were stained with 1 μg/ml 4′,6-diamidino-2-phenylindole (DAPI) and flow cytometry was used to determine cytotoxicity against target cells: Cells were gated for viable (DAPI negative) and dead target cells (DAPI positive). The specific cytotoxicity was defined as the percentages of dead target cells in the treated sample substracted by the percentage of dead target cells in the control sample without antibody.

[2] = test system: NK cells co-cultured with DAUDI cells; test: Degranulation of NK cells (CD107a); type: cell-based, human; details: PBMCs pre-treated 1 μM TAK-981 24 h and/or 0.1 or 10 nM tafasitamab; E:T 10:1; 3 h; vs DMSO control or mono treatments; FIG. 2
Description: as §3
Freshly isolated PBMCs were first pre-treated with 1 μM TAK-981 or DMSO-containing buffer for 24 hours. PBMCs with or without TAK-981 pre-treatment were co-cultured with DAUDI cells at an E:T ratio of 10:1 and incubated with 0.1 or 10 nM tafasitamab or no antibody at 37° C. and 5% CO2. After 1 hour, 2 μM Monensin was added to each well and CD107a expression was analyzed by flow cytometry after a total incubation time of 3 hours.

Row | Compound | Phagocytosis (DAUDI) | tumor growth inhibition as a single agent (in words) [1] | GRI % ([1]; I-263a 7.5 mg/kg IV BIW) | Tumor volume on Day 21 (±SEM) ([1]; I-263a 7.5 mg/kg IV BIW 3 weeks) | Phagocytosis (RAMOS) | Specific killing of lymphoma cell lines (specific cytotoxicity) (lymphoma cell lines) | percentage of CD107+ NK cells [2] | GRI % ([1]; tafasitamab 3 mg/kg IP BIW) | GRI % ([1]; tafasitamab 10 mg/kg IP BIW) | GRI % ([1]; tafasitamab 20 mg/kg IP BIW) | Tumor volume on Day 21 (±SEM) ([1]; tafasitamab 3 mg/kg IP BIW 3 weeks) | Tumor volume on Day 21 (±SEM) ([1]; tafasitamab 10 mg/kg IP BIW 3 weeks) | Tumor volume on Day 21 (±SEM) ([1]; tafasitamab 20 mg/kg IP BIW 3 weeks)
1 | Cc1sc(C(=O)c2cncnc2N[C@@H]2C[C@H](COS(N)(=O)=O)[C@@H](O)C2)cc1[C@@H]1NCCc2ccc(Cl)cc21 [Compound I-263a, [(1R,2S,4R)-4-{[5-({4-[(1R)-7-chloro-1,2,3,4-tetrahydroisoquinolin-1-yl]-5-methyl-2-thienyl}carbonyl)pyrimidin-4-yl]amino}-2-hydroxycyclopentyl]methyl sulfamate] | effectively phagocytosed | inhibits tumor growth | 32% | 1015.9 ± 137.9 | effectively phagocytosed | resulted in specific killing | elevated percentage of CD107+ NK cells |  |  |  |  |  | 
2 | Tafasitamab: humanized monoclonal antibody that targets the antigen CD19, engineered in the IgG Fc-region to enhance ADCC; sequences in Table 1 | effectively phagocytosed | inhibits tumor growth |  |  | effectively phagocytosed | resulted in specific killing | elevated percentage of CD107+ NK cells | 24% | 28% | 38% | 1142 ± 135.1 | 1132.7 ± 116.5 | 835.2 ± 89.1
